The values below come from patent US20240041042A1, “1-(PYRIDYL)-5-AZINYLPYRAZOLE DERIVATIVES, AND THEIR USE FOR CONTROL OF UNDESIRED PLANT GROWTH” (Bayer Aktiengesellschaft, priority 2020, published 2024).

Holding throughout (type): in vivo
Series [1] has as its system Triticum aestivum (TRZAS). As to conditions: crop plant compatibility, effect vs untreated controls. Put shortly: (§1)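 Test crops were treated 2 to 3 weeks after sowing, once they reached one leaf, by spraying compound in water with 0.5% additive at 600 l/ha. Visual scoring compared them with untreated controls roughly 3 weeks on, and appendices a, b and c denote different doses.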

The test system of series [2] is Oryza sativa (ORYSA). As to conditions: crop plant compatibility. Put shortly: as §1
The test system of series [3] is Zea mays (ZEAMX). As to conditions: for Post-emergence action against ZEAMX in % (crop plant compatibility): 20 g/ha, effect in comparison to untreated controls; for Post-emergence action against ZEAMX in %: crop plant compatibility, 80 g/ha, effect vs untreated controls. Put shortly:
as §1

For series [4], the system named is Digitaria sanguinalis (DIGSA). The experiment in a line: Pre-emergence herbicidal action against DIGSA. In short, it runs like this: (§2)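 Pre-emergence soil-surface spray of compound, formulated as wettable powder or emulsion concentrate, in aqueous suspension or emulsion with 0.5% additive (600 l/ha; rate 320 g/ha or less). Activity rated visually after roughly 3 weeks in the greenhouse as a percentage of untreated controls, 0% meaning no difference.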

Series [5] deals with Matricaria inodora (MATIN). Nature of the series: Pre-emergence herbicidal action against MATIN. As to conditions: dosage 320 g/ha. Put shortly: as §2
Series [6] deals with Echinochloa crus-galli (ECHCG). Nature of the series: Pre-emergence herbicidal action against ECHCG. Particulars: dosage 320 g/ha. Put shortly: as §2
The subject of the next series is Glycine max (GLXMA). The experiment in a line: Post-emergence crop plant compatibility, GLXMA. Particulars: post-emergence, effect in comparison to untreated controls. The protocol: Seeds of monocotyledonous and dicotyledonous weeds and crop plants are placed in sandy loam in plastic or organic planting pots, covered with soil and cultivated in a greenhouse under controlled growth conditions. 2 to 3 weeks after sowing, the test plants are treated at the one-leaf stage. The compounds of the invention, formulated in the form of wettable powders (WP) or as emulsion concentrates (EC), are then sprayed onto the green parts of the plants as aqueous suspension or emulsion with addition of 0.5% additive at a water application rate of 600 l/ha (converted). After the test plants have been kept in the greenhouse under optimum growth conditions for about 3 weeks, the activity of the preparations is rated visually in comparison to untreated controls. For example, 100% activity=the plants have died, 0% activity=like control plants.
The observed effects on selected crop plants are reported here in comparison to the untreated controls (values in %). The appendices “a”, “b” and “c” give differentiation by dosage used with otherwise the same crop plants tested.

For series [7], the system named is Echinochloa crus-galli (ECHCG). The experiment in a line: Post-emergence herbicidal action against ECHCG. Particulars: dosage 80 g/ha. In short, it runs like this: (§3)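 Rates were 320 g/ha or below, applied as aqueous WP/EC spray with 0.5% additive (600 l/ha) onto one-leaf-stage plants. About 3 weeks later in the greenhouse, damage was scored visually against untreated plants on a 0–100% scale, where 100% means plants died.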

Series [8] deals with Alopecurus myosuroides (ALOMY). The experiment in a line: Pre-emergence herbicidal action against ALOMY. Particulars: 320 g/ha; scored visually after about 3 weeks; 100% = plants have died. In short, it runs like this: as §2
In series [9] the test system is Abutilon theophrasti (ABUTH). Nature of the series: Post-emergence herbicidal action against ABUTH. As to conditions: visual rating about 3 weeks after treatment vs untreated controls (100% = plants have died, 0% = like control plants). In short, it runs like this: as §3
Series [10] has as its system Lolium rigidum (LOLRI). The experiment in a line: Pre-emergence herbicidal action against LOLRI. Particulars: dosage 320 g/ha. Put shortly:
as §2

For series [11], the system named is Setaria viridis (SETVI). The experiment in a line: Pre-emergence herbicidal action against SETVI. As to conditions: dosage 320 g/ha. Put shortly: as §2
Series [12] relates to Amaranthus retroflexus (AMARE). The experiment in a line: Pre-emergence herbicidal action against AMARE. As to conditions: 320 g/ha, visual scoring after about 3 weeks vs untreated controls. In short, it runs like this:
as §2

The test system of series [13] is Verconica persica (VERPE). Nature of the series: Pre-emergence herbicidal action against VERPE. Particulars: dosage 320 g/ha. Put shortly:
as §2

The test system of series [14] is Polygonum convolvulus (POLCO). Nature of the series: Pre-emergence herbicidal action against POLCO. As to conditions: dosage 320 g/ha. Put shortly:
as §2

Series [15] concerns Lolium rigidum (LOLRI). Nature of the series: Post-emergence herbicidal action against LOLRI. Particulars: dosage 80 g/ha. Put shortly: as §3
The test system of series [16] is Amaranthus retroflexus (AMARE). Nature of the series: Post-emergence herbicidal action against AMARE. As to conditions: 80 g/ha, visual rating about 3 weeks after treatment vs untreated controls (100% = plants have died, 0% = like control plants). In short, it runs like this: as §3
The test system of series [17] is Setaria viridis (SETVI). The experiment in a line: Post-emergence herbicidal action against SETVI. As to conditions: dosage 80 g/ha. In short, it runs like this: as §3
Series [18] relates to Viola tricolor (VIOTR). The experiment in a line: Pre-emergence herbicidal action against VIOTR. In short, it runs like this:
as §2

Series [19] relates to Matricaria inodora (MATIN). Nature of the series: Post-emergence herbicidal action against MATIN. Particulars: dosage 80 g/ha. Put shortly:
as §3

The subject of series [20] is Triticum aestivum (TRZAS). Particulars: pre-emergence, 80 g/ha, crop plant compatibility, in comparison to untreated controls. Put shortly:
(§4)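 Scoring: visual, % of untreated control, about 3 weeks after a pre-emergence application to the soil surface. Application used WP or EC formulations diluted in water with 0.5% additive at 600 l/ha; dosage levels are marked by suffixes a, b and c.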

For series [21], the system named is Oryza sativa (ORYSA). Particulars: pre-emergence, crop plant compatibility, in comparison to untreated controls. Put shortly: as §4
Series [22] has as its system Polygonum convolvulus (POLCO). Nature of the series: Post-emergence herbicidal action against POLCO. Particulars: dosage 320 g/ha. In short, it runs like this: as §3
Series [23] relates to Verconica persica (VERPE). The experiment in a line: Post-emergence herbicidal action against VERPE. As to conditions: 320 g/ha, VERPE. In short, it runs like this: as §3
Series [24] deals with Pharbitis purpurea (PHBPU). The experiment in a line: Post-emergence herbicidal action against PHBPU. Particulars: dosage 320 g/ha. Put shortly: as §3
Series [25] concerns Viola tricolor (VIOTR). Nature of the series: Post-emergence herbicidal action against VIOTR. As to conditions: 320 g/ha. Put shortly: as §3
For series [26], the system named is Alopecurus myosuroides (ALOMY). The experiment in a line: Post-emergence herbicidal action against ALOMY. Particulars: 80 g/ha, visual rating about 3 weeks after treatment vs untreated controls (100% = plants have died, 0% = like control plants). Put shortly: as §3
In series [27] the test system is Zea mays (ZEAMX). Particulars: pre-emergence, crop plant compatibility, in comparison to untreated controls. In short, it runs like this: as §4
The mark [28] stands for this setting: 20 g/ha, effect vs untreated controls.
[29] abbreviates: 80 g/ha, effect in comparison to untreated controls.

Like-named read-outs stand apart in the source and are kept apart here.

`O=C(O)CSc1nn(-c2ccccn2)c(-c2cncc(Cl)c2)c1Br` [Example I-126]: the “Post-emergence action against TRZAS in %” value in series [1] (20 g/ha) was 20%. Moreover, the “Post-emergence action against ORYSA in %” value in the series on Oryza sativa (ORYSA) [2] (setting [28]) and in the series on Oryza sativa (ORYSA) [2] (setting [29]) was 0% throughout. Also, the “Post-emergence action against ZEAMX in % (crop plant compatibility)” value with Zea mays (ZEAMX) [3] is 10%. The “Pre-emergence action against DIGSA in %” value in series [4] (80 g/ha, visual scoring after about 3 weeks vs untreated controls) is 90%; in [4] (dosage 320 g/ha), 100%. For the same molecule, the “Pre-emergence action against MATIN in %” value in series [5] is 90%. In addition, the “Pre-emergence action against ECHCG in %” value in [6] is 90%. Moreover, the “Post-emergence action against GLXMA in %” value in the series on Glycine max (GLXMA) (20 g/ha) came out at 20%. For the same molecule, in [7], the “Post-emergence action against ECHCG in %” value is on record as 80%. Also, the “Pre-emergence action against ALOMY” value in [8] came out at 80%. For the same molecule, in series [9] (80 g/ha), the “Post-emergence action against ABUTH in %” value is listed as 80%. The “Pre-emergence action against LOLRI in %” value in the series on Lolium rigidum (LOLRI) [10] turned out to be 100%. Further, the “Pre-emergence action against SETVI in %” value in the series on Setaria viridis (SETVI) [11] turned out to be 90%. Also, the “Pre-emergence action against AMARE in %” value in series [12] worked out at 100%. The “Pre-emergence action against VERPE in %” value in series [13] is recorded as 80%. For the same molecule, the “Pre-emergence action against POLCO in %” value in series [14] stood at 90%. Moreover, in the series on Lolium rigidum (LOLRI) [15], the “Post-emergence action against LOLRI in %” value was 80%. Besides, the “Post-emergence action against AMARE in %” value in series [16] was found to be 80%. Further, in the series with Setaria viridis (SETVI) [17], the “Post-emergence action against SETVI in %” value came to 80%. Besides, the “Pre-emergence action against VIOTR in %” value came out at 100% in the series on Viola tricolor (VIOTR) [18] (320 g/ha, Viola tricolor) and 100% in the series on Viola tricolor (VIOTR) [18] (dosage 80 g/ha). For the same molecule, in series [19], the “Post-emergence action against MATIN in %” value is recorded as 80%. The “Pre-emergence action against TRZAS in %” value in series [20] is 20%. Also, in the series with Oryza sativa (ORYSA) [21] (80 g/ha), the “Pre-emergence action against ORYSA in %” value is on record as 20%.

On to `COC(=O)CCOC(=O)COc1nn(-c2ccccn2)c(-c2ccc(F)nc2)c1C1CC1(F)F` (stereo not drawn) [Example I-261], for which, in series [1] (20 g/ha), the “Post-emergence action against TRZAS in %” value came to 0%. The “Post-emergence action against TRZAS in %” value in [1] (80 g/ha) is reported as 0%. In the series with Zea mays (ZEAMX) [3], the “Post-emergence action against ZEAMX in % (crop plant compatibility)” value amounted to 0% and the “Post-emergence action against ZEAMX in %” value is 0%. The “Post-emergence action against POLCO in %” value in series [22] is reported as 80%. In addition, the “Post-emergence action against GLXMA in %” value in the series on Glycine max (GLXMA) (20 g/ha) was found to be 0%. The “Post-emergence action against ABUTH in %” value in [9] (320 g/ha) turned out to be 80%. Also, in series [23], the “Post-emergence action against VERPE in %” value amounted to 80%. Besides, the “Post-emergence action against PHBPU in %” value in series [24] stood at 80%. In the series on Viola tricolor (VIOTR) [25], the “Post-emergence action against VIOTR in %” value is reported as 80%.

As to `COC(=O)CN(C)C(=O)COc1nn(-c2ccccn2)c(-c2ccc(F)nc2)c1Br` [Example I-114], the “Post-emergence action against TRZAS in %” value in [1] (20 g/ha) and in series [1] (80 g/ha) was 0% in each case. Besides, the “Post-emergence action against ORYSA in %” value in the series on Oryza sativa (ORYSA) [2] (setting [28]) and in the series on Oryza sativa (ORYSA) [2] (setting [29]) was 0% in each case. Moreover, the “Post-emergence action against ZEAMX in % (crop plant compatibility)” value in the series on Zea mays (ZEAMX) [3] came out at 0%. The “Post-emergence action against ZEAMX in %” value in the series on Zea mays (ZEAMX) [3] was 0%. Also, the “Pre-emergence action against DIGSA in %” value in series [4] (dosage 320 g/ha) was found to be 90%. For the same molecule, the “Post-emergence action against GLXMA in %” value with Glycine max (GLXMA) (20 g/ha) and in the series on Glycine max (GLXMA) (80 g/ha) was 0% in each case. Also, the “Pre-emergence action against ALOMY” value in series [8] is on record as 100%. In series [26], the “Post-emergence action against ALOMY in %” value is 90%. Moreover, the “Post-emergence action against SETVI in %” value in the series on Setaria viridis (SETVI) [17] came out at 80%. Also, the “Pre-emergence action against VIOTR in %” value worked out at 90% in the series with Viola tricolor (VIOTR) [18] (320 g/ha, Viola tricolor) and 80% with Viola tricolor (VIOTR) [18] (dosage 80 g/ha). Further, the “Pre-emergence action against TRZAS in %” value in [20] came out at 20%. For the same molecule, the “Pre-emergence action against ORYSA in %” value in the series on Oryza sativa (ORYSA) [21] (80 g/ha) and with Oryza sativa (ORYSA) [21] (320 g/ha) was 0% each time. Further, the “Pre-emergence action against ZEAMX in %” value with Zea mays (ZEAMX) [27] (80 g/ha) came to 10%; in the series on Zea mays (ZEAMX) [27] (320 g/ha), 20%.
